pIC50: −log10 of the molar value. Converted amounts (≈) assume the structure as drawn.
Key:
[1] = test system: Escherichia coli; assay: Antimicrobial activity against Escherichia coli DH5-alpha TC1179 isolate expressing TEM-1 by […]; type: functional; details: DH5alpha
[2] = test system: Escherichia coli; assay: Activity of Escherichia coli BL21(DE3) beta-lactamase TEM152
[3] = test system: Escherichia coli; assay: Antimicrobial activity against recombinant Escherichia coli DH5-alpha isolate expressing pBK-TEM-1 and TEM1 by disk diffusion assay; type: functional; details: DH5alpha
[4] = test system: Escherichia coli; assay: Activity of Escherichia coli BL21(DE3) beta-lactamase TEM1
[5] = test system: Escherichia coli; assay: Activity of Escherichia coli BL21(DE3) beta-lactamase TEM151
[6] = test system: Escherichia coli; assay: Activity of Escherichia coli BL21(DE3) beta-lactamase TEM29
[7] = test system: Escherichia coli; assay: Antimicrobial activity against recombinant Escherichia coli DH5-alpha isolate expressing pBK-TEM-28 and ESBL by disk diffusion assay; type: functional; details: DH5alpha
[8] = test system: Escherichia coli; assay: Antimicrobial activity against Escherichia coli DH5-alpha CF1179 isolate expressing CMT and TEM1 by […]; type: functional; details: DH5alpha
[9] = test system: Escherichia coli; assay: Antimicrobial activity against recombinant Escherichia coli DH5-alpha isolate expressing pBK-TEM-36 and IRT by disk diffusion assay; type: functional; details: DH5alpha
[10] = test system: Escherichia coli; assay: Antimicrobial activity against Escherichia coli DH5-alpha isolate expressing pBK-CMV by […]; type: functional; details: DH5alpha
[11] = test system: Escherichia coli; assay: Activity of Escherichia coli BL21(DE3) beta-lactamase TEM28
[12] = test system: Escherichia coli; assay: microbe, parasite or virus in culture; type: functional; details: DH5alpha
[13] = test system: Escherichia coli; assay: Antimicrobial activity against Escherichia coli DH5-alpha TC1295 isolate expressing TEM-1 by […]; type: functional; details: DH5alpha
[14] = test system: Escherichia coli; assay: Activity of Escherichia coli BL21(DE3) beta-lactamase TEM36
[15] = test system: Escherichia coli; assay: Antimicrobial activity against recombinant Escherichia coli DH5-alpha isolate expressing pBK-TEM-29 and ESBL by disk diffusion assay; type: functional; details: DH5alpha
[16] = test system: Escherichia coli; assay: Antimicrobial activity against Escherichia coli DH5-alpha CF1295 isolate expressing CMT and TEM1 by […]; type: functional; details: DH5alpha
[17] = test system: Escherichia coli; assay: microbe, parasite or virus in culture; type: functional; details: DH5alpha; remark: listed apart in the source
[18] = Inhibition of Escherichia coli BL21(DE3) beta-lactamase TEM152
[19] = Inhibition of Escherichia coli BL21(DE3) beta-lactamase TEM36
[20] = Inhibition of Escherichia coli BL21(DE3) beta-lactamase TEM28
[21] = Inhibition of Escherichia coli BL21(DE3) beta-lactamase TEM29
[22] = Inhibition of Escherichia coli BL21(DE3) beta-lactamase TEM151
[23] = Inhibition of Escherichia coli BL21(DE3) beta-lactamase TEM1

Row | SMILES | MIC [1] [µg/mL] | Km [2] [µM] | kcat [2] [s⁻¹] | kcat/Km [2] [M⁻¹ s⁻¹] | MIC [3] [µg/mL] | kcat [4] [s⁻¹] | Km [5] [µM] | kcat [5] [s⁻¹] | kcat/Km [5] [M⁻¹ s⁻¹] | Km [6] [µM] | kcat [6] [s⁻¹] | MIC [7] [µg/mL] | MIC [8] [µg/mL] | MIC [9] [µg/mL] | MIC [10] [µg/mL] | MIC [12] [µg/mL] | MIC [13] [µg/mL] | MIC [15] [µg/mL] | MIC [16] [µg/mL] | MIC [17] [µg/mL] | further results
1 | CO/N=C(\C(=O)N[C@@H]1C(=O)N2C(C(=O)[O-])=C(C[N+]3(C)CCCC3)CS[C@H]12)c1csc(N)n1 | < 0.06 | 45 | 2.8 | 60000 | < 0.06 | < 0.1 | 126 | 2.5 | 20000 | 145 | 17 | 16 | 2 (≈ 4.16 µM) | 0.12 | < 0.06 | 16 (≈ 33.3 µM) | < 0.06 | 4 |  |  | kcat/Km [6]: 110000 M⁻¹ s⁻¹; Km [11]: 72 µM; kcat [11]: 8 s⁻¹; kcat/Km [11]: 110000 M⁻¹ s⁻¹; kcat [14]: < 0.1 s⁻¹
2 | C[C@H]1[C@H](NC(=O)/C(=N\OC(C)(C)C(=O)O)c2csc(N)n2)C(=O)N1S(=O)(=O)O (stereo in doubt) [AZTREONAM] |  | 22 | 3.5 | 160000 |  | < 0.1 | 83 | 8.3 | 100000 | 34 | 2.1 |  | > 2050 |  |  | 64 (≈ 147 µM) |  | 4 | 8 (≈ 18.4 µM) | 2 (≈ 4.59 µM) | kcat/Km [6]: 60000 M⁻¹ s⁻¹; Km [11]: 75 µM; kcat [11]: 43 s⁻¹; kcat/Km [11]: 570000 M⁻¹ s⁻¹; kcat [14]: < 0.1 s⁻¹
3 | C[C@]1(Cn2ccnn2)[C@H](C(=O)O)N2C(=O)C[C@H]2S1(=O)=O [TAZOBACTAM] |  |  |  |  |  |  |  |  |  |  |  |  |  |  |  |  |  |  |  |  | pIC50 [18]: 6.40; pIC50 [19]: 6.89; pIC50 [20]: 7.70; pIC50 [21]: 5.62; pIC50 [22]: 6.57; pIC50 [23]: 7.52
4 | O=C(O)[C@H]1/C(=C/CO)O[C@@H]2CC(=O)N21 [CLAVULANIC ACID] |  |  |  |  |  |  |  |  |  |  |  |  |  |  |  |  |  |  |  |  | pIC50 [18]: 6.00; pIC50 [19]: 7.10; pIC50 [20]: 7.70; pIC50 [21]: 4.69; pIC50 [22]: 6.77; pIC50 [23]: 7.60
5 | CC1(C)S[C@@H]2[C@H](NC(=O)[C@H](C(=O)O)c3ccsc3)C(=O)N2[C@H]1C(=O)O [TICARCILLIN] | > 2050 | 36 | 51 | 1.4e+06 | > 2050 | 135 | 21 | 60 | 2.9e+06 | 14 | 42 | > 2050 | > 2050 | > 2050 | 2 (≈ 5.2 µM) | > 2050 | > 2050 | > 2050 | > 2050 | > 2050 | Km [4]: 36 µM; kcat/Km [4]: 3.8e+06 M⁻¹ s⁻¹; kcat/Km [6]: 3e+06 M⁻¹ s⁻¹; Km [11]: 9 µM; kcat [11]: 38 s⁻¹; kcat/Km [11]: 4.2e+06 M⁻¹ s⁻¹; Km [14]: 130 µM; kcat [14]: 176 s⁻¹; kcat/Km [14]: 1.3e+06 M⁻¹ s⁻¹
6 | CCN1CCN(C(=O)N[C@@H](C(=O)N[C@@H]2C(=O)N3[C@@H]2SC(C)(C)[C@@H]3C(=O)O)c2ccccc2)C(=O)C1=O [PIPERACILLIN] | 512 (≈ 989 µM) | 50 | 306 | 6.12e+06 | 512 | 1250 | 44 | 172 | 3.9e+06 | 39 | 336 | > 2050 | > 2050 | > 2050 | 2 (≈ 3.86 µM) | > 2050 | 512 (≈ 989 µM) | 1020 | 512 (≈ 989 µM) | 256 (≈ 495 µM) | Km [4]: 55 µM; kcat/Km [4]: 2.3e+06 M⁻¹ s⁻¹; kcat/Km [6]: 8.6e+06 M⁻¹ s⁻¹; Km [11]: 27 µM; kcat [11]: 213 s⁻¹; kcat/Km [11]: 7.9e+06 M⁻¹ s⁻¹; Km [14]: 170 µM; kcat [14]: 1220 s⁻¹; kcat/Km [14]: 7.1e+06 M⁻¹ s⁻¹
7 | CC(C)(O/N=C(\C(=O)N[C@@H]1C(=O)N2C(C(=O)[O-])=C(C[n+]3ccccc3)CS[C@H]12)c1csc(N)n1)C(=O)O [CEFTAZIDIME] | 0.12 (≈ 0.22 µM) | 230 | 16 | 70000 | 0.12 | < 0.1 | 250 | 5 | 20000 | 215 | 10 | 512 | 64 (≈ 117 µM) | 0.25 | 0.12 (≈ 0.22 µM) | 512 (≈ 937 µM) | 0.12 (≈ 0.22 µM) | 32 | 4 (≈ 7.32 µM) | 8 (≈ 14.6 µM) | kcat/Km [6]: 50000 M⁻¹ s⁻¹; Km [11]: 240 µM; kcat [11]: 64 s⁻¹; kcat/Km [11]: 270000 M⁻¹ s⁻¹; kcat [14]: < 0.1 s⁻¹
8 | CC1(C)S[C@@H]2[C@H](NC(=O)[C@H](N)c3ccc(O)cc3)C(=O)N2[C@H]1C(=O)O [AMOXICILLIN] | > 2050 | 48 | 258 | 5.4e+06 | > 2050 | 1120 | 40 | 149 | 3.7e+06 | 26 | 91 | > 2050 | > 2050 | > 2050 | 4 (≈ 10.9 µM) | > 2050 | > 2050 | > 2050 | > 2050 | > 2050 | Km [4]: 15 µM; kcat/Km [4]: 7.5e+07 M⁻¹ s⁻¹; kcat/Km [6]: 3.5e+06 M⁻¹ s⁻¹; Km [11]: 12 µM; kcat [11]: 88 s⁻¹; kcat/Km [11]: 7.3e+06 M⁻¹ s⁻¹; Km [14]: 114 µM; kcat [14]: 624 s⁻¹; kcat/Km [14]: 5.5e+06 M⁻¹ s⁻¹
9 | CC(=O)OCC1=C(C(=O)O)N2C(=O)[C@@H](NC(=O)Cc3cccs3)[C@H]2SC1 [CEPHALOTHIN] | 4 (≈ 10.1 µM) | 260 | 4 | 20000 | 4 | 165 | 330 | 15 | 40000 | 205 | 126 | 128 | 32 (≈ 80.7 µM) | 16 | 4 (≈ 10.1 µM) | 16 (≈ 40.4 µM) | 4 (≈ 10.1 µM) | 64 | 32 (≈ 80.7 µM) | 8 (≈ 20.2 µM) | Km [4]: 242 µM; kcat/Km [4]: 700000 M⁻¹ s⁻¹; kcat/Km [6]: 610000 M⁻¹ s⁻¹; Km [11]: 288 µM; kcat [11]: 194 s⁻¹; kcat/Km [11]: 670000 M⁻¹ s⁻¹; Km [14]: 335 µM; kcat [14]: 18.4 s⁻¹; kcat/Km [14]: 50000 M⁻¹ s⁻¹
10 | CO/N=C(\C(=O)N[C@@H]1C(=O)N2C(C(=O)O)=C(COC(N)=O)CS[C@H]12)c1ccco1 [CEFUROXIME] | 4 (≈ 9.43 µM) |  |  |  | 4 |  |  |  |  |  |  | 16 | 8 (≈ 18.9 µM) | 8 | 4 (≈ 9.43 µM) | 8 (≈ 18.9 µM) | 4 (≈ 9.43 µM) | 1020 | 8 (≈ 18.9 µM) | 8 (≈ 18.9 µM) | 
11 | CO[C@@]1(NC(=O)Cc2cccs2)C(=O)N2C(C(=O)O)=C(COC(N)=O)CS[C@@H]21 [CEFOXITIN] | 4 (≈ 9.36 µM) |  |  |  | 4 |  |  |  |  |  |  | 8 | 8 (≈ 18.7 µM) | 8 | 4 (≈ 9.36 µM) | 8 (≈ 18.7 µM) | 4 (≈ 9.36 µM) | 16 | 8 (≈ 18.7 µM) | 8 (≈ 18.7 µM) | 
12 | CO/N=C(\C(=O)N[C@@H]1C(=O)N2C(C(=O)O)=C(COC(C)=O)CS[C@H]12)c1csc(N)n1 [CEFOTAXIME] | 0.02 (≈ 0.0439 µM) | 34 | 1 | 30000 | 0.06 | < 0.1 | 304 | 5 | 20000 | 345 | 14 | 4 | 0.12 (≈ 0.263 µM) | 0.06 | 0.02 (≈ 0.0439 µM) | 0.25 (≈ 0.549 µM) | 0.02 (≈ 0.0439 µM) | 0.5 | 0.12 (≈ 0.263 µM) | 0.06 (≈ 0.132 µM) | kcat/Km [6]: 40000 M⁻¹ s⁻¹; Km [11]: 50 µM; kcat [11]: 9 s⁻¹; kcat/Km [11]: 180000 M⁻¹ s⁻¹; kcat [14]: < 0.1 s⁻¹

From ChEMBL document CHEMBL1146197, “Evolution of TEM-type enzymes: biochemical and genetic characterization of two new complex mutant TEM enzymes, TEM-151 and TEM-152, from a single patient” (Antimicrob Agents Chemother, 2007)
